TGI and GI50 data for eleven molecules are collected here from PubChem BioAssay (NCI).

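Test compounds were applied to cells in 96-well plates for 48 hours at 5 doses. GI50 marks 50% less growth. TGI denotes the concentration required for complete inhibition of growth.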

Some test systems named below: SK-MEL-2 melanoma; NCI-H226 lung; RPMI-8226 leukemia; M14 melanoma; UACC-257 melanoma; SK-MEL-28 melanoma; HOP-62 NSCLC; SK-OV-3 ovarian; SR leukemia; OVCAR-3 ovarian; NCI-H23 lung; SF-539 CNS; HOP-92 NSCLC; HCT-15 colon; NCI/ADR-RES ovarian; MCF7 breast; DU-145 prostate.
Common to all, as to assay: growth of human tumour cells (NCI), 48 h

Take `CC(C)(C)C(=O)/C=C/c1ccc(Oc2ccccc2)cc1`: the TGI is 37.9 µM with SK-MEL-2 melanoma; 36.2 µM with NCI-H226 lung; 29.3 µM with RPMI-8226 leukemia; 34.5 µM with M14 melanoma; 42.6 µM in the test on UACC-257 melanoma; over 100 µM in the test on SK-MEL-28 melanoma. The TGI in the test on HOP-62 NSCLC is 86.4 µM; in the test with SK-OV-3 ovarian, over 100 µM.

Take `COc1c(C)c2c(c(C)c1Cl)Oc1c(C=O)c(O)c(Cl)c(C)c1C(=O)O2`: the TGI is 89.4 µM in the test on SR leukemia; 94.6 µM with NCI-H226 lung; 30.8 µM in the test on OVCAR-3 ovarian; over 100 µM in the test on RPMI-8226 leukemia; over 100 µM in the test on M14 melanoma; over 100 µM in the test with UACC-257 melanoma. Besides, the TGI was 93.7 µM in the test with HOP-62 NSCLC, 45.2 µM in the test with NCI-H23 lung, 39.7 µM in the test on SF-539 CNS and over 100 µM with SK-OV-3 ovarian.

`COc1cc2c(cc1OC)C(O)[C@H](Br)C(C)(C)O2` (stereo partly specified): the TGI in the test with SR leukemia, in the test on SK-MEL-2 melanoma, in the test with HOP-92 NSCLC, in the test on NCI-H226 lung, with OVCAR-3 ovarian and in the test with RPMI-8226 leukemia was over 100 µM throughout. The TGI with M14 melanoma, with UACC-257 melanoma, with SK-MEL-28 melanoma, in the test on HOP-62 NSCLC, in the test on NCI-H23 lung and in the test on SF-539 CNS was over 100 µM throughout. The TGI in the test on SK-OV-3 ovarian and in the test on HCT-15 colon was over 100 µM each time.

Take `Cc1ccc2c(c1CCCC(C)(C)O)C(=O)C(=O)C(C(C)C)=C2O`: the TGI in the test on SR leukemia, with SK-MEL-2 melanoma, with HOP-92 NSCLC, with NCI-H226 lung, with OVCAR-3 ovarian and in the test on RPMI-8226 leukemia was over 100 µM throughout. Moreover, the TGI in the test with M14 melanoma, in the test with SK-MEL-28 melanoma, in the test with NCI-H23 lung, with SF-539 CNS, in the test with SK-OV-3 ovarian and in the test on HCT-15 colon was over 100 µM each time.

`Cc1cn(C2CC(N(O)Cc3ccccc3)C(CO)O2)c(=O)[nH]c1=O` (stereo unspecified): the TGI with SR leukemia, in the test on NCI-H226 lung, with OVCAR-3 ovarian, in the test on RPMI-8226 leukemia, with M14 melanoma and in the test with UACC-257 melanoma was over 100 µM in each case. In addition, the TGI in the test with SK-MEL-28 melanoma, with HOP-62 NSCLC, with NCI-H23 lung, in the test with SF-539 CNS, in the test on SK-OV-3 ovarian and in the test on HCT-15 colon was over 100 µM in each case.

Take `O=c1[nH]cc(COCC(F)(F)C(F)(F)C(F)(F)C(F)F)c(=O)[nH]1`: the TGI in the test with SR leukemia, with SK-MEL-2 melanoma, in the test on HOP-92 NSCLC, in the test on OVCAR-3 ovarian, in the test with RPMI-8226 leukemia and in the test on M14 melanoma was over 100 µM in each case. Also, the TGI with UACC-257 melanoma, with SK-MEL-28 melanoma, with HOP-62 NSCLC, in the test with NCI-H23 lung, in the test with SK-OV-3 ovarian and in the test with HCT-15 colon was over 100 µM throughout.

Regarding `COc1ccc2c(c1)CC[C@@H]1[C@@H]2CC[C@]2(C)C(=O)/C(=C/c3ccc(OC)c(OC)c3)C[C@@H]12`, the TGI in the test on SR leukemia, with SK-MEL-2 melanoma, in the test on HOP-92 NSCLC, in the test on OVCAR-3 ovarian, in the test on RPMI-8226 leukemia and in the test on M14 melanoma was over 100 µM in each case. The TGI in the test on NCI/ADR-RES ovarian, with MCF7 breast, with HOP-62 NSCLC, in the test on NCI-H23 lung, in the test on SF-539 CNS and in the test with DU-145 prostate was over 100 µM each time. For the same molecule, the TGI in the test with SK-OV-3 ovarian and in the test on HCT-15 colon was over 100 µM in each case.

`Cc1cn2c(=O)c3ccccc3nc2s1`: the TGI with SR leukemia, in the test on SK-MEL-2 melanoma, in the test with HOP-92 NSCLC, in the test with NCI-H226 lung, in the test on OVCAR-3 ovarian and in the test on RPMI-8226 leukemia was over 100 µM each time. For the same molecule, the TGI with M14 melanoma, in the test with UACC-257 melanoma, in the test with SK-MEL-28 melanoma, in the test with HOP-62 NSCLC, in the test on NCI-H23 lung and with SF-539 CNS was over 100 µM throughout. Besides, in the test with SK-OV-3 ovarian, the TGI was over 100 µM.

`CCOC(=O)C(N=Nc1ccc(S(N)(=O)=O)cc1)C(C)=O` (stereo unspecified): the TGI in the test on SR leukemia, in the test on SK-MEL-2 melanoma, with HOP-92 NSCLC, with NCI-H226 lung, with OVCAR-3 ovarian and in the test on RPMI-8226 leukemia was over 100 µM each time. The TGI with M14 melanoma, with UACC-257 melanoma, in the test with SK-MEL-28 melanoma, with HOP-62 NSCLC, in the test with NCI-H23 lung and in the test on SF-539 CNS was over 100 µM throughout. The TGI in the test on SK-OV-3 ovarian and with HCT-15 colon was over 100 µM throughout.

As to `NS(=O)(=O)c1ccc(-n2c(-c3cccs3)nc3ccc(I)cc3c2=O)cc1`, the TGI with SR leukemia is over 100 µM; in the test with SK-MEL-2 melanoma it was 47.6 µM; in the test on HOP-92 NSCLC, 54.1 µM; in the test with NCI-H226 lung, 87.3 µM; with OVCAR-3 ovarian, 35.1 µM; with RPMI-8226 leukemia, 62.1 µM. Moreover, the TGI in the test on M14 melanoma came to 56 µM; with UACC-257 melanoma it was 19.3 µM; with NCI/ADR-RES ovarian, 86.3 µM; in the test on MCF7 breast, 65.4 µM; in the test on SK-MEL-28 melanoma, 55.5 µM; in the test with HOP-62 NSCLC it was 84.2 µM. The TGI in the test with NCI-H23 lung was 51.1 µM; in the test with DU-145 prostate, 35.9 µM; with SK-OV-3 ovarian, 53.7 µM; with HCT-15 colon it was 50.9 µM. Further, the GI50 was 21.8 µM in the test on SK-MEL-2 melanoma and 25.3 µM in the test with RPMI-8226 leukemia.

In the case of `Cc1cccc2c1Oc1cc(Cl)ccc1C2NC(=O)CCN1CCOCC1` (stereo unspecified), the TGI is over 100 µM in the test with SR leukemia; 95.2 µM in the test with HOP-92 NSCLC; over 100 µM in the test with OVCAR-3 ovarian; over 100 µM with M14 melanoma; over 100 µM in the test with UACC-257 melanoma; over 100 µM with NCI/ADR-RES ovarian. Further, the TGI in the test on MCF7 breast, in the test on SK-MEL-28 melanoma, in the test with HOP-62 NSCLC, in the test with NCI-H23 lung, in the test on SF-539 CNS and in the test with DU-145 prostate was over 100 µM each time. Moreover, the TGI with SK-OV-3 ovarian and in the test with HCT-15 colon was over 100 µM throughout.
